Assay results as given in patent US20150284375A1 (AJINOMOTO CO., INC., priority 2012, published 2015).

molecular target: T1, human TRPA1 (Homo sapiens, UniProt O75762); test: Measurement of TRPA1 antagonist activity (intracellular calcium increase, FLIPR, allylisothiocyanate stimulation); assay type: cell-based; conditions: 293T cells transfected with human TRPA1; allylisothiocyanate 20 μM; concentration for 50% inhibitory rate; read-out: antagonism hTRPA1
T1 construct: expressed in transfected cells; host or cells: Human embryonic kidney-derived 293T cells, transiently transfected with the pcDNA3.1/zeo(+) human TRPA1 plasmid
Text: Measurement of TRPA1 Antagonist Activity
Human TRPA1 Expression Plasmid
As cDNA encoding human TRPA1 (GenBank accession No. […]), a commercially available product was purchased (manufactured by Kazusa DNA Research Institute, clone No.: pFN21AB7348, item No.: FHC07217). Using this as a template, full-length human TRPA1 gene was amplified using the primer sequences shown below, by reaction using DNA polymerase (manufactured by Stratagene, trade name: PfuUltra High-Fidelity DNA Polymerase).
A recognition site (underlined) of restriction enzyme HindIII was added to the 5′ side, and XbaI site (underlined) was added to the 3′ side, and GTT of the template sequence was changed to termination codon TAG (bold). The obtained double stranded DNA was enzyme-digested with HindIII and XbaI, and introduced into a multicloning site of expression plasmid pcDNA3.1/zeo(+) (manufactured by Invitrogen) to give a human TRPA1 expression plasmid.
Human embryonic kidney-derived 293T cells were cultured in Dulbecco's Modified Eagle Medium containing 10% fetal bovine serum, 10 unit penicillin, and 10 μg streptomycin, plated on a petri dish having a diameter of 10 cm at 3×10^6 cells, and cultured for 24 hr. A medium containing a reduced amount of serum (manufactured by Invitrogen, trade name: OPTI-MEM, 600 μL), a gene insertion reagent (manufactured by Mirus Bio, trade name: Mirus TransIT-293, 18 μL), and human TRPA1 expression plasmid (6 μg) were mixed, the total amount of the mixture was added to the cells on the petri dish to allow for gene transfer. The cells were recovered about 8 hr later, plated on a poly-D-lysine coated 384 well black/clear bottom plate at 7,500-12,000 cells/well, and cultured overnight.
Measurement of Intracellular Calcium Increase
The 384 well plate was recovered, and the medium was removed. A calcium-bonded fluorescent indicator (manufactured by Molecular Device, trade name: Calcium4 Assay Kit, 40 μL) dissolved in assay buffer (1×HBSS, 20 mM HEPES, pH 7.2) was added, and the cells were stained in a 37° C. incubator for 1 hr. The cells were taken out at room temperature and left standing for 15 min or more. A test substance (10 μL) was added by a 384 well type dispenser, and the mixture was incubated at room temperature for 10 min. Then, allylisothiocyanate (12.5 μL) at a final concentration of 20 μM was added by a fluorescence imaging plate reader (manufactured by Molecular Device, FLIPR), and changes in the relative fluorescence intensity were measured for 5 min.
Test Substance Preparation
The test substance was dissolved in dimethyl sulfoxide and serially diluted with an assay buffer containing 0.1% bovine serum albumin (1×HBSS, 20 mM HEPES, pH 7.2) to a 5-fold concentration of the evaluation concentration. Allylisothiocyanate, which is a known TRPA1 activator, was dissolved in dimethyl sulfoxide to 100 mM, and further diluted 5-fold (100 μM) of the final concentration, like the test substance.
Calculation of Antagonist Activity
Under the test substance-free conditions, the maximum variation range of the fluorescence intensity before and after allylisothiocyanate stimulation was defined to be 100% activity rate, and the variation range before and after buffer stimulation was defined as 0% activity rate. The activity rate on addition of the test substance was determined, and the numerical value obtained by subtracting the activity rate from 100 was defined to be an inhibitory rate. 1050, which is the concentration of the test substance necessary for reaching the 50% inhibitory rate, was calculated from the sigmoid approximate curve by a spreadsheet software Excel-Fit.

T1 sequence (O75762 whole entry): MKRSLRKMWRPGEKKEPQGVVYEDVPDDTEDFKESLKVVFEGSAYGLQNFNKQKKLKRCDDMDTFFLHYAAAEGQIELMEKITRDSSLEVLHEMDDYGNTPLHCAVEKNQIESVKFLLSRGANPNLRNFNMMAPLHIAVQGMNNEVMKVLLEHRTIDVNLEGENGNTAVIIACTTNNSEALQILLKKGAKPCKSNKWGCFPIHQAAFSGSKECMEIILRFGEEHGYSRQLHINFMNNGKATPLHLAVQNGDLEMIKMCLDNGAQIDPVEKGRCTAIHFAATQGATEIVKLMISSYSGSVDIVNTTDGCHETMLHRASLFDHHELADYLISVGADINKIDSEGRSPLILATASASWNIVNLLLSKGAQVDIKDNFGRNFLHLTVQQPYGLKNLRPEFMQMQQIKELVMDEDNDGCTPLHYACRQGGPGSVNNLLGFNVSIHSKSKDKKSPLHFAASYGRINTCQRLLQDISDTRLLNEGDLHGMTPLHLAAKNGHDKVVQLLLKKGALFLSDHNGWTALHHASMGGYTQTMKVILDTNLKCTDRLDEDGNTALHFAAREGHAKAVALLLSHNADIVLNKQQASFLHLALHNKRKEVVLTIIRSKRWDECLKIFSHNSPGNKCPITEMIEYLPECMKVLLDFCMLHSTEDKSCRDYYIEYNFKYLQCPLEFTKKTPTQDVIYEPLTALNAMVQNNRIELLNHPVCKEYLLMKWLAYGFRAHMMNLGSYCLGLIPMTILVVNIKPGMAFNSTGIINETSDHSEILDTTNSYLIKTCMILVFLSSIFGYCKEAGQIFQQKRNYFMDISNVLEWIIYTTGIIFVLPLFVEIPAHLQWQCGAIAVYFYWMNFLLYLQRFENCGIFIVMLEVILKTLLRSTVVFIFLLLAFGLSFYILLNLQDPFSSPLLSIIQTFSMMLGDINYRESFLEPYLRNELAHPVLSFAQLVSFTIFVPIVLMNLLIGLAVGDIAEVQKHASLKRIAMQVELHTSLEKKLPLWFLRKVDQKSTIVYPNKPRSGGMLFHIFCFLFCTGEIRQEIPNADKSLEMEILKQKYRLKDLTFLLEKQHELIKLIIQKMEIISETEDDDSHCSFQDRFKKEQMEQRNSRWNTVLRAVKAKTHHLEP

IC50 | SMILES
390 nM | O=C(NCc1ccc(COc2ccc(F)cc2)cc1)[C@@H]1CCCN1S(=O)(=O)c1ccc(Cl)s1 [Example 46, (2S)-1-(5-chlorothiophene-2-sulfonyl)-N-({4-[(4-fluoro-phenoxy)methyl]phenyl}methyl)pyrrolidine-2-carboxamide]
620 nM | O=C(NCc1ccc(COc2ccc(Cl)cc2)cc1)[C@@H]1CCCN1S(=O)(=O)c1ccc(Cl)s1 [Example 47, (2S)-N-({4-[(4-chlorophenoxy)methyl]phenyl}methyl)-1-(5-chlorothiophene-2-sulfonyl)pyrrolidine-2-carboxamide]
630 nM | COC(=O)c1ccc(OCc2ccc(CNC(=O)[C@@H]3CCCN3S(=O)(=O)c3ccc(Cl)s3)cc2)cc1 [Example 48, methyl 4-((4-({[(2S)-1-(5-chlorothiophene-2-sulfonyl)pyrrolidine-2-carbonyl]amino}methyl)phenyl)methoxy)benzoate]
2100 nM | N#Cc1ccc(OCc2ccc(CNC(=O)[C@@H]3CCCN3S(=O)(=O)c3ccc(Cl)s3)cc2)cc1 [Example 49, (2S)-1-(5-chlorothiophene-2-sulfonyl)-N-({4-[(4-cyano-phenoxy)methyl]phenyl}methyl)pyrrolidine-2-carboxamide]
230 nM | O=C(NCc1ccc(COc2cccc(F)c2)cc1)[C@@H]1CCCN1S(=O)(=O)c1ccc(Cl)s1 [Example 55, (2S)-1-(5-chlorothiophene-2-sulfonyl)-N-({4-[(3-fluoro-phenoxy)methyl]phenyl}methyl)pyrrolidine-2-carboxamide]
250 nM | O=C(NCc1ccc(COc2cccc(Cl)c2)cc1)[C@@H]1CCCN1S(=O)(=O)c1ccc(Cl)s1 [Example 56, (2S)-N-({4-[(3-chlorophenoxy)methyl]phenyl}methyl)-1-(5-chlorothiophene-2-sulfonyl)pyrrolidine-2-carboxamide]

Continued, molecule first:

SMILES | IC50
O=C(NCc1ccc(COc2cccc(C(F)(F)F)c2)cc1)[C@@H]1CCCN1S(=O)(=O)c1ccc(Cl)s1 [Example 50] | 242 nM
CC(C)(C)Oc1ccc(OCc2ccc(CNC(=O)[C@@H]3CCCN3S(=O)(=O)c3ccc(Cl)s3)cc2)cc1 [Example 51, (2S)-N-({4-[(4-tert-butoxyphenoxy)methyl]phenyl}methyl)-1-(5-chlorothiophene-2-sulfonyl)pyrrolidine-2-carboxamide] | 630 nM
O=C(NCc1ccc(COc2cccc(OC(F)(F)F)c2)cc1)[C@@H]1CCCN1S(=O)(=O)c1ccc(Cl)s1 [Example 52, (2S)-1-(5-chlorothiophene-2-sulfonyl)-N-((4-{[3-(trifluoro-methoxy)phenoxy]methyl}phenyl)methyl)pyrrolidine-2-carboxamide] | 210 nM
Cc1cccc(OCc2ccc(CNC(=O)[C@@H]3CCCN3S(=O)(=O)c3ccc(Cl)s3)cc2)c1 [Example 53, (2S)-1-(5-chlorothiophene-2-sulfonyl)-N-({4-[(3-methyl-phenoxy)methyl]phenyl}methyl)pyrrolidine-2-carboxamide] | 500 nM
COc1cccc(OCc2ccc(CNC(=O)[C@@H]3CCCN3S(=O)(=O)c3ccc(Cl)s3)cc2)c1 [Example 54, (2S)-1-(5-chlorothiophene-2-sulfonyl)-N-({4-[(3-methoxy-phenoxy)methyl]phenyl}methyl)pyrrolidine-2-carboxamide] | 550 nM
O=C(NCc1ccc(COc2cc(F)cc(F)c2)cc1)[C@@H]1CCCN1S(=O)(=O)c1ccc(Cl)s1 [Example 57, (2S)-1-(5-chlorothiophene-2-sulfonyl)-N-({4-[(3,5-difluoro-phenoxy)methyl]phenyl}methyl)pyrrolidine-2-carboxamide] | 310 nM
COC(=O)c1cccc(OCc2ccc(CNC(=O)[C@@H]3CCCN3S(=O)(=O)c3ccc(Cl)s3)cc2)c1 [Example 58, methyl 3-((4-({[(2S)-1-(5-chlorothiophene-2-sulfonyl)pyrrolidine-2-carbonyl]amino}methyl)phenyl)methoxy)benzoate] | 310 nM
